Laboratory results: ChEMBL document CHEMBL1135919, “Synthesis of photoreactive phosphatidic acid analogues displaying activatory properties on cyclic AMP-phosphodiesterases. Photoaffinity labeling of an isoform of phosphodiesterase” (J Med Chem, 2002)
pEC50: −log10 of the molar value.

Target: T1, 3',5'-cyclic-AMP phosphodiesterase 4D (Rattus norvegicus, UniProt P14270)
T1 sequence (P14270 whole entry): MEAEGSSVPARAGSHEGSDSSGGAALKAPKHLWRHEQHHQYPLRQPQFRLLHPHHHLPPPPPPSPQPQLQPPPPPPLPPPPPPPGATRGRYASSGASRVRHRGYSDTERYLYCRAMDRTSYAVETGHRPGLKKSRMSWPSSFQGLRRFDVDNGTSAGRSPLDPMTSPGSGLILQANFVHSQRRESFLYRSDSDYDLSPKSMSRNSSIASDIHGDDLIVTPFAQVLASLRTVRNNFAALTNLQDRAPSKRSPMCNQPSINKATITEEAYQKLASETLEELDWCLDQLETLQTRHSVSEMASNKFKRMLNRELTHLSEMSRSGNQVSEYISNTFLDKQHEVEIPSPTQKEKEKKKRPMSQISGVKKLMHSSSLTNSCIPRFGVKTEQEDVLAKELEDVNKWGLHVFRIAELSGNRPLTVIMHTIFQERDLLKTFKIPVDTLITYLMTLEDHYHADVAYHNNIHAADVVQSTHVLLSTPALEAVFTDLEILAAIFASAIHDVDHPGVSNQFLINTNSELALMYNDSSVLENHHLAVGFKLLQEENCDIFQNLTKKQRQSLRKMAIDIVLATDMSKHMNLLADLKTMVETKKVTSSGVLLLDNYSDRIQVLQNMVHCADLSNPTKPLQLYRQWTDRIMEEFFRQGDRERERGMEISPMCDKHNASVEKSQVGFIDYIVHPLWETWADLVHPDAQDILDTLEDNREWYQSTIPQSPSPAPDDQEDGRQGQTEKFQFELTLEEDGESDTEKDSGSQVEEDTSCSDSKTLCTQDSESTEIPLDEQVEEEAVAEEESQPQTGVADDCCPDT
Experiment: Activation of PDE4D3 (phosphodiesterase).
Type: functional

pEC50 | Compound
4.63 | CCCCCCCC/C=C/CCCCCCCC(=O)OC(COC(=O)CCCCCCCCCCCNC(=O)c1c(F)c(F)c(N=[N+]=[N-])c(F)c1F)COP(=O)(O)O (stereo not drawn)
4.63 | CCCCCCCC/C=C/CCCCCCCC(=O)OCC(COP(=O)(O)O)OC(=O)CCCCCCCCCCCNC(=O)c1c(F)c(F)c(N=[N+]=[N-])c(F)c1F (stereo not drawn)
4.62 | CCCCCCCCCCCCCCCC(=O)OCC(COP(=O)(O)O)OC(=O)CCCCCCCCCCCNC(=O)c1c(F)c(F)c(N=[N+]=[N-])c(F)c1F (stereo not drawn)
